Measurements as given in patent US12180187B2, “1-phenyl-5-azinylpyrazolyl-3-oxyalkyl acids and their use for controlling unwanted plant growth” (BAYER AKTIENGESELLSCHAFT, priority 2019, dated 2024).
Several values for one entry are separate records, joined by “and”; a condition that tells them apart may be missing. Identical values can stand only once.

What was measured:
AMARE = assay: Post-emergence action against AMARE, 1.28 kg/ha; assay type: in vivo, Amaranthus retroflexus; conditions: dosage 1280 g/ha, visual rating about 3 weeks after treatment vs untreated controls (100% = plants died)
Method in brief: (§1)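 Herbicidal action is estimated by eye after about three weeks under optimum greenhouse conditions, on a 0–100% scale against untreated plants. Compounds are applied post-emergence to one-leaf-stage weeds as aqueous WP or EC preparations containing 0.5% additive, sprayed at 600 L/ha.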

LOLRI [1] = assay: Post-emergence action against LOLRI, 1.28 kg/ha; assay type: in vivo, Lolium rigidum; conditions: dosage 1280 g/ha, visual rating about 3 weeks after treatment vs untreated controls
Method in brief: as §1

AVEFA [2] = assay: Pre-emergence action at 320 g/ha against AVEFA; assay type: in vivo; conditions: visual scoring after about 3 weeks vs untreated controls; for pest or weed control at 320 g/ha: Avena fatua, 504 h
Method in brief: (§2)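 Sow seeds, cover with soil, spray soil surface (WP/EC, 0.5% additive, 600 l/ha water), hold in greenhouse ~3 wk, then rate % activity visually against untreated controls.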

VERPE [3] = assay: Post-emergence action against VERPE, 1.28 kg/ha; assay type: in vivo, Veronica persica; conditions: dosage 1280 g/ha, visual rating about 3 weeks after treatment vs untreated controls (100% = plants died); for pest or weed control at 1280 g/ha: Veronica persica, 504 h
Method in brief: as §1

VERPE [4] = assay: Pre-emergence action at 320 g/ha against VERPE; assay type: in vivo, Veronica persica; conditions: visual scoring after about 3 weeks vs untreated controls; for pest or weed control at 320 g/ha: Veronica persica, 504 h
Method in brief: as §2

ALOMY = assay: Post-emergence action against ALOMY, 1.28 kg/ha; assay type: in vivo, Alopecurus myosuroides; conditions: dosage 1280 g/ha, visual rating about 3 weeks after treatment vs untreated controls
Method in brief: as §1

ECHCG = assay: Post-emergence action at 320 g/ha against ECHCG; assay type: in vivo, Echinochloa crus-galli; conditions: dosage 320 g/ha, visual rating about 3 weeks after treatment vs untreated controls (100% = plants died)
Method in brief: (§3)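 Weeds were sown in sandy loam, grown in a greenhouse and sprayed at the one-leaf stage, 2 to 3 weeks after sowing, with WP or EC formulations as aqueous suspension or emulsion plus 0.5% additive at 600 l/ha water. Activity was rated visually after about 3 weeks against untreated controls (100% = plants dead, 0% = like control).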

AVEFA [5] = assay: Post-emergence action at 320 g/ha against AVEFA; assay type: in vivo; conditions: visual rating about 3 weeks after treatment vs untreated controls; for pest or weed control at 320 g/ha: Avena fatua, 504 h
Method in brief: as §3

SETVI = assay: Post-emergence action against SETVI, 1.28 kg/ha; assay type: in vivo, Setaria viridis; conditions: dosage 1280 g/ha, visual rating about 3 weeks after treatment vs untreated controls
Method in brief: as §1

VIOTR [6] = assay: Pre-emergence action at 320 g/ha against VIOTR; assay type: in vivo, Viola tricolor; conditions: dosage 320 g/ha; for pest or weed control at 320 g/ha: Viola tricolor, 504 h
Method in brief: as §2

DIGSA [7] = assay: Post-emergence action at 320 g/ha against DIGSA; assay type: in vivo, Digitaria sanguinalis; conditions: dosage 320 g/ha, visual rating about 3 weeks after treatment vs untreated controls (100% = plants died); for pest or weed control at 320 g/ha: Digitaria sanguinalis, 504 h
Method in brief: as §3

LOLRI [8] = assay: Pre-emergence action at 320 g/ha against LOLRI; assay type: in vivo, Lolium rigidum; conditions: visual scoring after about 3 weeks vs untreated controls; for pest or weed control at 320 g/ha: Lolium rigidum, 504 h
Method in brief: as §2

LOLRI [9] = assay: Pre-emergence action against LOLRI, 1280 g/ha; assay type: in vivo, Lolium rigidum; conditions: visual scoring after about 3 weeks vs untreated controls, 100% = plants have died, 0% = like control plants; for pest or weed control at 1280 g/ha: Lolium rigidum, 504 h
Method in brief: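 Greenhouse pre-emergence test on sown seeds in sandy loam; soil-surface spray of formulated compound with 0.5% additive at 600 L/ha water. Scored visually, % vs untreated, after about 3 weeks.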

ECHGC = assay: Pre-emergence action at 320 g/ha against ECHGC; assay type: in vivo, Echinochloa crus-galli; conditions: visual scoring after about 3 weeks vs untreated controls
Method in brief: as §2

VIOTR [10] = assay: Post-emergence action at 320 g/ha against VIOTR; assay type: in vivo, Viola tricolor; conditions: visual rating about 3 weeks after treatment vs untreated controls; for pest or weed control at 320 g/ha: Viola tricolor, 504 h
Method in brief: as §3

DIGSA [11] = assay: Post-emergence action against DIGSA, 1.28 kg/ha; assay type: in vivo, Digitaria sanguinalis; conditions: dosage 1280 g/ha, visual rating about 3 weeks after treatment vs untreated controls
Method in brief: as §1

Row | Compound | Post-emergence action against AMARE (AMARE) | Post-emergence action against LOLRI (LOLRI [1]) [%] | Pre-emergence action against AVEFA in % (AVEFA [2]) [%] | Post-emergence action against VERPE (VERPE [3]) [%] | Pre-emergence action against VERPE in % (VERPE [4]) [%] | Post-emergence action against ALOMY (ALOMY) [%] | Post-emergence action at 320 g/ha against ECHCG in % (ECHCG) [%] | Post-emergence action against AVEFA in % (AVEFA [5]) [%] | Post-emergence action against SETVI (SETVI) | Pre-emergence action against VIOTR in % (VIOTR [6]) [%] | Post-emergence action at 320 g/ha against DIGSA in % (DIGSA [7]) [%] | Pre-emergence action against LOLRI in % (LOLRI [8]) [%] | Pre-emergence action against LOLRI (LOLRI [9]) [%] | Pre-emergence action against ECHGC in % (ECHGC) [%] | Post-emergence action against VIOTR in % (VIOTR [10]) [%] | Post-emergence action against DIGSA (DIGSA [11]) [%] | also measured
1 | CN(C)S(=O)(=O)NC(=O)COc1nn(-c2ccccc2F)c(-c2ccc(F)nc2)c1Br [Example X-005] | 100% | 100 | 100 | 100 | 100 | 100 | 80 | 90 | 90% | 100 | 90 | 100 | 100 | 90 | 80 | – | –
2 | O=C(O)COc1nn(-c2ccccc2F)c(-c2ccc(F)nc2)c1Br [VII-003, {[4-Bromo-1-(2-fluorophenyl)-5-(6-fluoropyridin-3-yl)-1H-pyrazol-3-yl]oxy}acetic acid] | 100% | 100 | – | – | – | 90 | 90 | – | 90% | – | – | – | – | 100 | – | 100 | pest or weed control at 320 g/ha (AVEFA [2]): 90%; pest or weed control at 1280 g/ha (VERPE [3]): 90%; pest or weed control at 320 g/ha (VERPE [4]): 100%; pest or weed control at 320 g/ha (AVEFA [5]): 80%; pest or weed control at 320 g/ha (VIOTR [6]): 100%; pest or weed control at 320 g/ha (DIGSA [7]): 90%; pest or weed control at 320 g/ha (LOLRI [8]): 100%; pest or weed control at 1280 g/ha (LOLRI [9]): 100%; pest or weed control at 320 g/ha (VIOTR [10]): 90%
3 | COC(=O)[C@@H](C)Oc1nn(-c2ccccc2)c(-c2cccnc2)c1Br [VII-008] | 90% | 100 | 80 | 100 | 100 | 100 | 90 | 90 | 90% | 100 | 80 | 100 | 100 | 80 | 90 | – | –
4 | CCOC(=O)COc1nn(-c2ccccc2F)c(-c2ccc(F)nc2)c1Br [VII-012, Ethyl {[4-bromo-1-(2-fluorophenyl)-5-(6-fluoropyridin-3-yl)-1H-pyrazol-3-yl]oxy}acetate] | 100% and 90% | 100 | – | – | – | 100 | 90 | – | 100% and 90% | – | – | – | – | 100 | – | 100 | pest or weed control at 320 g/ha (AVEFA [2]): 90%; pest or weed control at 1280 g/ha (VERPE [3]): 90%; pest or weed control at 320 g/ha (VERPE [4]): 100%; pest or weed control at 320 g/ha (AVEFA [5]): 90%; pest or weed control at 320 g/ha (VIOTR [6]): 100%; pest or weed control at 320 g/ha (DIGSA [7]): 80%; pest or weed control at 320 g/ha (LOLRI [8]): 90%; pest or weed control at 1280 g/ha (LOLRI [9]): 100%; pest or weed control at 320 g/ha (VIOTR [10]): 90%
5 | CCOC(=O)COc1nn(-c2ccccc2F)c(-c2cncc(F)c2)c1Br [VII-015] | 90% | 100 | 90 | 100 | 100 | 100 | 90 | 90 | 90% | 100 | 100 | 90 | 100 | 90 | 90 | 100 | –
6 | CCOC(=O)C(C)Oc1nn(-c2ccccc2F)c(-c2ccc(F)nc2)c1Br (stereo not shown) [VII-019] | 90% | 100 | 90 | 90 | 100 | 100 | 90 | 100 | 90% | 100 | 90 | 100 | 100 | 100 | 90 | 100 | –
7 | COC(=O)C(C)Oc1nn(-c2ccccc2)c(-c2cccnc2)c1Cl (stereo not shown) [VII-032] | 100% | 100 | 80 | 100 | 100 | – | 90 | 100 | 90% | 100 | 90 | 100 | 100 | 90 | 90 | 90 | –
